Reference: paper PMC11823630, “In vitro potentiation of tetracyclines in Pseudomonas aeruginosa by RW01, a new cyclic peptide” (Antimicrobial Agents and Chemotherapy, 2024)
Converted amounts (≈) assume the structure as drawn.

Experiments:
[1] = system: P. aeruginosa PAO1, WT; experiment: MIC, E-test on MHA; assay type: cell-based; conditions: Pseudomonas aeruginosa, PAO1, read-out: MIC, E-test
[2] = system: PAO1 mutant MIN1_RW01_1, pmrB(Y98N); experiment: MIC, E-test on MHA; assay type: cell-based; conditions: Pseudomonas aeruginosa, PAO1, read-out: MIC, E-test
[3] = system: PAO1 mutant MIN1_RW01_2, mexR(G58E), pilB(G326D), hutC(Y181X); experiment: MIC, E-test on MHA; assay type: cell-based; conditions: Pseudomonas aeruginosa, PAO1, read-out: MIC, E-test
[4] = system: PAO1 mutant MIN2_RW01_1, pmrB(V215L); experiment: MIC, E-test on MHA; assay type: cell-based; conditions: Pseudomonas aeruginosa, PAO1, read-out: MIC, E-test
[5] = system: PAO1 mutant MIN2_RW01_2, pmrB(M292T); experiment: MIC, E-test on MHA; assay type: cell-based; conditions: Pseudomonas aeruginosa, PAO1, read-out: MIC, E-test
[6] = system: PAO1 mutant MIN2_RW01_3, parS(V152A); experiment: MIC, E-test on MHA; assay type: cell-based; conditions: Pseudomonas aeruginosa, PAO1, read-out: MIC, E-test
[7] = system: PAO1 mutant MIN2_RW01_4, pmrB(M292T); experiment: MIC, E-test on MHA; assay type: cell-based; conditions: Pseudomonas aeruginosa, PAO1, read-out: MIC, E-test
[8] = system: PAO1 mutant MIN4_RW01_1, pmrB(R429H); experiment: MIC, E-test on MHA; assay type: cell-based; conditions: Pseudomonas aeruginosa, PAO1, read-out: MIC, E-test
[9] = system: PAO1 mutant MIN4_RW01_2, pmrB(F124S); experiment: MIC, E-test on MHA; assay type: cell-based; conditions: Pseudomonas aeruginosa, PAO1, read-out: MIC, E-test
[10] = system: PAO1 mutant MIN4_RW01_3, pmrB(M292T); experiment: MIC, E-test on MHA; assay type: cell-based; conditions: Pseudomonas aeruginosa, PAO1, read-out: MIC, E-test
[11] = system: PAO1 mutant MIN8_1, nalD(R3C), pilM(Q62X); experiment: MIC, E-test on MHA; assay type: cell-based; conditions: Pseudomonas aeruginosa, PAO1, read-out: MIC, E-test
[12] = system: PAO1 mutant MIN8_2, pilZ(nt18InsT); experiment: MIC, E-test on MHA; assay type: cell-based; conditions: Pseudomonas aeruginosa, PAO1, read-out: MIC, E-test
[13] = system: PAO1 mutant MIN8_3, pilZ(nt18InsT); experiment: MIC, E-test on MHA; assay type: cell-based; conditions: Pseudomonas aeruginosa, PAO1, read-out: MIC, E-test
[14] = system: PAO1 mutant MIN16_2, nalC(aa9∆4), pilQ(nt46∆1); experiment: MIC, E-test on MHA; assay type: cell-based; conditions: Pseudomonas aeruginosa, PAO1, read-out: MIC, E-test
[15] = system: PAO1 mutant MIN16_3, nfxB(nt79∆14), pilB(N349K); experiment: MIC, E-test on MHA; assay type: cell-based; conditions: Pseudomonas aeruginosa, PAO1, read-out: MIC, E-test
[16] = system: PAO1 mutant MIN16_4, nalC(T50P), pilM(Q62X); experiment: MIC, E-test on MHA; assay type: cell-based; conditions: Pseudomonas aeruginosa, PAO1, read-out: MIC, E-test
[17] = system: P. aeruginosa PAO1; experiment: One-step mutant generation and resistant population analysis on MHA; assay type: cell-based, Pseudomonas aeruginosa
Protocol: (§1) Selection of resistant mutants was performed for minocycline with and without RW01 in three independent replicates for wild-type P. aeruginosa reference strain PAO1. Tubes containing Mueller-Hinton broth (MHB) were inoculated and incubated for 24 h at 37°C. Afterward, 1/100 dilution of each tube was incubated at 37°C in MHB to late-exponential growth phase, measured by spectrophotometry at OD600. […] A control plate without antibiotic was included as inoculum control. After overnight incubation, colony counting of each treatment was performed to analyze the generation of resistant population. The mutant prevention concentration (MPC) was defined as the lowest concentration of antibiotic yielding no growth of resistant mutants. Selected mutants were checked for susceptibility profiles by using a Sensititre custom plate (Thermo Fisher Scientific, Massachusetts, USA) for Gram-negative bacteria, following the manufacturer’s instructions.

[18] = system: PAO1 one-step mutants; experiment: MIC, MHB microdilution, mutants summarised as a group; assay type: cell-based, Pseudomonas aeruginosa
Protocol: (§2) MIC for RW01 was also tested.
as §1

[19] = system: PAO1 mutant MIN1_RW01_1, pmrB(Y98N); experiment: MIC, MHB microdilution; conditions: Pseudomonas aeruginosa, PAO1, read-out: MIC, MHB microdilution
[20] = system: PAO1 mutant MIN1_RW01_2, mexR(G58E), pilB(G326D), hutC(Y181X); experiment: MIC, MHB microdilution; conditions: Pseudomonas aeruginosa, PAO1, read-out: MIC, MHB microdilution
[21] = system: PAO1 mutant MIN1_RW01_3, pmrB(V215L); experiment: MIC, MHB microdilution; conditions: Pseudomonas aeruginosa, PAO1, read-out: MIC, MHB microdilution
[22] = system: PAO1 mutant MIN2_RW01_2, pmrB(M292T); experiment: MIC, MHB microdilution; conditions: Pseudomonas aeruginosa, PAO1, read-out: MIC, MHB microdilution
[23] = system: PAO1 mutant MIN2_RW01_3, parS(V152A); experiment: MIC, MHB microdilution; conditions: Pseudomonas aeruginosa, PAO1, read-out: MIC, MHB microdilution
[24] = system: PAO1 mutant MIN4_RW01_3, pmrB(M292T); experiment: MIC, MHB microdilution; conditions: Pseudomonas aeruginosa, PAO1, read-out: MIC, MHB microdilution
[25] = system: PAO1 mutant MIN8_2, pilZ(nt18InsT); experiment: MIC, MHB microdilution; conditions: Pseudomonas aeruginosa, PAO1, read-out: MIC, MHB microdilution
[26] = system: PAO1 mutant MIN8_3, pilZ(nt18InsT); experiment: MIC, MHB microdilution; conditions: Pseudomonas aeruginosa, PAO1, read-out: MIC, MHB microdilution
[27] = system: PAO1 mutant MIN16_1, nalD(T43P); experiment: MIC, MHB microdilution; conditions: Pseudomonas aeruginosa, PAO1, read-out: MIC, MHB microdilution
[28] = system: PAO1 mutant MIN16_2, nalC(aa9∆4), pilQ(nt46∆1); experiment: MIC, MHB microdilution; conditions: Pseudomonas aeruginosa, PAO1, read-out: MIC, MHB microdilution
[29] = system: PAO1 mutant MIN16_3, nfxB(nt79∆14), pilB(N349K); experiment: MIC, MHB microdilution; conditions: Pseudomonas aeruginosa, PAO1, read-out: MIC, MHB microdilution
[30] = system: PAO1 mutant MIN16_4, nalC(T50P), pilM(Q62X); experiment: MIC, MHB microdilution; conditions: Pseudomonas aeruginosa, PAO1, read-out: MIC, MHB microdilution
[31] = system: PAO1 mutant MIN32_1, mexR(R63H), pilB(N349K), PA0646(V316G); experiment: MIC, MHB microdilution; conditions: Pseudomonas aeruginosa, PAO1, read-out: MIC, MHB microdilution
[32] = system: 10 P. aeruginosa strains; experiment: MIC with and without RW01, summary over the strain collection; assay type: cell-based, Pseudomonas aeruginosa; conditions: RW01 100 mg/L; all strains tested
Protocol: as §2

Question: `C[C@H]1c2cccc(O)c2C(=O)C2=C(O)[C@]3(O)C(=O)C(C(N)=O)=C(O)[C@@H](N(C)C)[C@@H]3[C@@H](O)[C@@H]21` [Doxycycline, doxycycline] was tested. Which MIC [1] did it give?
Answer: 32 µg/mL (≈ 72 µM)

Question: What about the MIC [2] of the same compound?
Answer: 96 µg/mL (≈ 216 µM)

Question: And the MIC [3]?
Answer: 256 µg/mL (≈ 576 µM)

Question: What about the MIC [4] of the same compound?
Answer: 96 µg/mL (≈ 216 µM)

Question: What about the MIC [5] of the same compound?
Answer: 128 µg/mL (≈ 288 µM)

Question: And the MIC [6]?
Answer: 256 µg/mL (≈ 576 µM)

Question: And the MIC [7]?
Answer: 64 µg/mL (≈ 144 µM)

Question: And the MIC [8]?
Answer: 256 µg/mL (≈ 576 µM)

Question: And the MIC [9]?
Answer: 64 µg/mL (≈ 144 µM)

Question: What about the MIC [10] of the same compound?
Answer: 128 µg/mL (≈ 288 µM)

Question: What about the MIC [11] of the same compound?
Answer: 256 µg/mL (≈ 576 µM)

Question: And the MIC [12]?
Answer: 256 µg/mL (≈ 576 µM)

Question: What about the MIC [13] of the same compound?
Answer: 128 µg/mL (≈ 288 µM)

Question: What about the MIC [14] of the same compound?
Answer: 128 µg/mL (≈ 288 µM)

Question: What about the MIC [15] of the same compound?
Answer: 192 µg/mL (≈ 432 µM)

Question: And the MIC [16]?
Answer: 128 µg/mL (≈ 288 µM)

Question: `CN(C)c1ccc(O)c2c1C[C@H]1C[C@H]3[C@H](N(C)C)C(O)=C(C(N)=O)C(=O)[C@@]3(O)C(O)=C1C2=O` [Minocycline, minocycline] was tested. Which “mutant prevention concentration (MPC)” value ([17]; PAO1, minocycline alone, three independent replicates) did it give?
Answer: 32 to 64 mg/L

Question: What about the “mutant prevention concentration (MPC) with RW01” value ([17]; PAO1, minocycline co-administered with RW01 100 mg/L) of the same compound?
Answer: 8 mg/L

Question: What about the MIC ([17]; Pseudomonas aeruginosa, PAO1, read-out: MIC (population studies)) of the same compound?
Answer: 4 to 8 µg/mL (≈ 8.74 to 17.5 µM)

Question: And the MIC ([18]; Pseudomonas aeruginosa, PAO1, read-out: highest MIC among the mutants)?
Answer: ≤ 64 µg/mL

Question: And the “MIC range over the tested mutants” value ([18]; agent alone, both mutant types, for minocycline the typical range)?
Answer: 16 to 32 µg/mL

Question: And the “MIC of the minocycline-RW01 combination” value ([18]; mutants selected by minocycline + RW01)?
Answer: 4.0 to 8.0 µg/mL

Question: And the MIC [19]?
Answer: 16 µg/mL (≈ 35 µM)

Question: And the MIC [20]?
Answer: 32 to 64 µg/mL (≈ 69.9 to 140 µM)

Question: What about the MIC [21] of the same compound?
Answer: 16 µg/mL (≈ 35 µM)

Question: And the MIC [22]?
Answer: 16 to 32 µg/mL (≈ 35 to 69.9 µM)

Question: And the MIC [23]?
Answer: 16 µg/mL (≈ 35 µM)

Question: And the MIC [24]?
Answer: 64 µg/mL (≈ 140 µM)

Question: What about the MIC [25] of the same compound?
Answer: 16 µg/mL (≈ 35 µM)

Question: What about the MIC [26] of the same compound?
Answer: 16 µg/mL (≈ 35 µM)

Question: And the MIC [27]?
Answer: 16 µg/mL (≈ 35 µM)

Question: What about the MIC [28] of the same compound?
Answer: 16 µg/mL (≈ 35 µM)

Question: What about the MIC [29] of the same compound?
Answer: 16 to 32 µg/mL (≈ 35 to 69.9 µM)

Question: And the MIC [30]?
Answer: 16 µg/mL (≈ 35 µM)

Question: What about the MIC [31] of the same compound?
Answer: 32 to 64 µg/mL (≈ 69.9 to 140 µM)

Question: How did the MIC [1] turn out when `CN(C)c1cc(NC(=O)CNC(C)(C)C)c(O)c2c1C[C@H]1C[C@H]3[C@H](N(C)C)C(O)=C(C(N)=O)C(=O)[C@@]3(O)C(O)=C1C2=O` [Tigecycline, tigecycline] was run?
Answer: 6 to 8 µg/mL (≈ 10.2 to 13.7 µM)

Question: And the MIC [2]?
Answer: 24 µg/mL (≈ 41 µM)

Question: And the MIC [3]?
Answer: 32 µg/mL (≈ 54.6 µM)

Question: And the MIC [4]?
Answer: 24 µg/mL (≈ 41 µM)

Question: What about the MIC [5] of the same compound?
Answer: 16 µg/mL (≈ 27.3 µM)

Question: And the MIC [6]?
Answer: 48 µg/mL (≈ 82 µM)

Question: What about the MIC [7] of the same compound?
Answer: 16 µg/mL (≈ 27.3 µM)

Question: What about the MIC [8] of the same compound?
Answer: 16 µg/mL (≈ 27.3 µM)

Question: What about the MIC [9] of the same compound?
Answer: 16 µg/mL (≈ 27.3 µM)

Question: What about the MIC [10] of the same compound?
Answer: 32 µg/mL (≈ 54.6 µM)

Question: And the MIC [11]?
Answer: 32 µg/mL (≈ 54.6 µM)

Question: And the MIC [12]?
Answer: 32 µg/mL (≈ 54.6 µM)

Question: What about the MIC [13] of the same compound?
Answer: 16 µg/mL (≈ 27.3 µM)

Question: What about the MIC [14] of the same compound?
Answer: 32 µg/mL (≈ 54.6 µM)

Question: And the MIC [15]?
Answer: 48 µg/mL (≈ 82 µM)

Question: And the MIC [16]?
Answer: 16 µg/mL (≈ 27.3 µM)

Question: What about the “MIC reduction on combination with RW01 over the strains” value [32] of the same compound?
Answer: four- to eightfold
